Several values for one entry are separate records, joined by “and”; a condition that tells them apart may be missing. Equal entries are not always repeated. Entries after “also recorded” stand apart in the source; their conditions may differ.
Assays:
[1] = system: U-87MG human glioblastoma xenografted into nude mice; experiment: Experiment 1: growth of s.c. U-87MG xenografts in nude mice; format: in vivo, human tumour in male athymic nude mice; conditions: for Final tumour volume / Final tumour volume, % inhibition / Tumour weight, % inhibition / Tumour doubling time: 150 nmol kg^-1 i.v. days 1, 8, 15, 22; for Final tumour volume / Final tumour volume, % inhibition / Tumour weight, % inhibition: day 29; for Final tumour volume / Tumour doubling time: mean±s.e.; for Final tumour volume: control 3201.5±375.7; for Final tumour volume, % inhibition / Tumour weight, % inhibition: vs control; for Antitumour effect / Tumour doubling time: experiment 1; for Antitumour effect: 150 nmol kg^-1 i.v.; for Tumour doubling time: day 1 to 29, control 4.5±0.2
Description: (§1) Human glioblastoma cell line U-87MG was obtained from American Type Culture Collection (Manassas, VA, USA) and cultured as described ([Pinski et al, 1994]). Male athymic (Ncr nu/nu) nude mice, approximately 6-weeks-old on arrival, were obtained from the National Cancer Institute (Frederick Cancer Research and Development Center, Frederick, MD, USA), and housed in laminar air-flow cabinets under pathogen-free conditions with a 12 h light/12 h dark schedule, and fed autoclaved standard chow and water ad libitum. Xenografts were initiated by s.c. injection of 12×10^6 U-87MG cells into the right flanks of five male nude mice. Tumours resulting after 2 weeks were aseptically dissected, mechanically minced, and 3-mm^3 pieces of tumour tissue were transplanted s.c. with a trocar needle. The take rate was 100%. All experiments were performed in accordance with institutional ethical guidelines of animal care and were essentially in agreement with [UKCCCR guidelines (1998)] for the welfare of animals in experimental neoplasia.
(§2) Experiment 1 was started when tumours had grown to approximately 40 mm^3 in volume. Animals were randomly divided into three treatment groups: group 1(10 mice), control, which received vehicle solution; group 2 (10 mice), injected with cytotoxic radical AN-201; group 3 (11 mice), given cytotoxic BN analogue AN-215. Cytotoxic compounds were injected through the jugular vein at a dose of 150 nmol kg^−1 of body weight (BW) on days 1, 8, 15 and 22. Tumour volume (length×width×height×0.5236) and BW were measured twice a week. The experiment was terminated on day 29. […] Tumours were excised and weighed. Tumour specimens were snap-frozen and stored at −70°C until extraction of RNA for reverse transcription-polymerase chain reaction (RT–PCR). Tumour volume doubling time was calculated between day 1 and 29 using the formula: […]
as described by [Smolev et al (1977)].
(§3) Data are expressed as mean±s.e. Differences between mean values were evaluated by two-tailed Student's t-test, P<0.05 being considered significant.

[2] = cited from earlier work; for BW change: accompanying WBC decrease, nude mice bearing PC-3; for Reduction in WBC count: after the final injection, nude mice bearing PC-3 human prostate cancers
Description: In our previous study ([Plonowski et al, 2000]) we reported that after the final injection of AN-215, AN-201 or the mixture of AN-201 and […] there was an approximate 50% reduction in WBC count in nude mice bearing PC-3 human prostate cancers. […] In the present study no measurements of WBC were carried out. Instead, the assessment of toxicity was based on changes in BW and mortality which indicated, in both experiments, that targeted cytotoxic BN analogue AN-215 is not toxic (Table 2). In experiment 1, two of 10 animals (20%) ...

[3] = system: BN receptor-positive organs; experiment: GRP-stimulated serum gastrin release; format: in vivo, nude mice; conditions: for Effect on GRP-stimulated gastrin release: experiment 1, after i.v. stimulation with GRP(14-27); for GRP(14-27)-evoked serum gastrin level: experiment 1 end, 5 min after i.v. 2 μg GRP(14-27), radioimmunoassay, control 223.0±17.9, mean±s.e.
Description: General toxicity was evaluated on the basis of mortality rate and changes in BW. Toxicity to BN receptor-positive organs was assessed by measuring gastrin release in response to GRP stimulation ([Plonowski et al, 2000]). […] Serum gastrin concentrations were measured by double-antibody radioimmunoassay with a kit provided by ICN Pharmaceuticals Diagnostic Division (Orangeburg, NY, USA). The interassay variation was 10.6%, and the intraassay variation was 6%.

[4] = General toxicity (mortality, body weight); format: in vivo, nude mice; conditions: for Final BW: mean±s.e.
Description: as §2
(§4) Experiment 2 was started when U-87MG tumours had grown to 70–84 mm^3 in volume. The animals were divided into the following treatment groups: group 1 (10 mice), control, vehicle solution; group 2 (10 mice), analogue AN-215; group 3 (five mice), unconjugated mixture of the cytotoxic radical AN-201 and BN antagonist RC-3095. All compounds were injected i.v. at 150 nmol kg^−1 of BW on days 1, 10, and 17. In addition, one group of tumour-bearing mice received an i.v. injection of 200 μg of BN antagonist RC-3095 15 min before each administration of AN-215 at a dose of 150 nmol kg^−1 of BW on days 1, 10 and 17 as in the case of group 2. The experiment was terminated on day 20 as described above.
General toxicity was evaluated on the basis of mortality rate and changes in BW. Toxicity to BN receptor-positive organs was assessed by measuring gastrin release in response to GRP stimulation ([Plonowski et al, 2000]). At the end of experiment 1, blood samples were collected 5 min after i.v. injection of 2 μg of GRP(14-27) dissolved in 100 μl of 5% mannitol. Serum gastrin concentrations were measured by double-antibody radioimmunoassay with a kit provided by ICN Pharmaceuticals Diagnostic Division (Orangeburg, NY, USA). The interassay variation was 10.6%, and the intraassay variation was 6%.

[5] = system: BN receptors on membrane preparations from U-87MG tumours; experiment: 125I-[Tyr4]BN binding characteristics (Kd, Bmax) of BN receptors on U-87MG tumour membranes; parameters: species or system human; conditions: AN-215-treated vs control
Description: (§5) Binding characteristics of BN receptors on membrane preparations from U-87MG tumours were determined by ligand competition assays using ^125I-labelled [Tyr^4]BN, as reported earlier ([Halmos and Schally, 1997]). […] IC50 value was calculated with a computerized curve fitting programme and is defined as the concentration of AN-215 causing a 50% inhibition of ^125I-[Tyr^4]BN binding.

[6] = molecular target: BN/GRP receptor on U-87MG tumour membranes; experiment: Displacement of 125I-[Tyr4]BN binding (radioreceptor assay) on U-87MG tumour membranes; parameters: species or system human
Description: as §5

[7] = system: U-87MG human glioblastoma xenografted into nude mice; experiment: Experiment 2: growth of s.c. U-87MG xenografts, with BN receptor blockade; format: in vivo, human tumour in male athymic nude mice
Description: as §1, §4, §3

[8] = experiment 1, 150 nmol kg^-1 i.v. days 1, 8, 15, 22
[9] = experiment 1, 150 nmol kg^-1 i.v. days 1, 8, 15, 22, control 0/10
[10] = experiment 1, day 29, control 29.3±1.0
[11] = RC-3095 200 μg/mouse i.v. 15 min before AN-215 150 nmol kg^-1 days 1, 10, 17

COc1cccc2c1C(=O)c1c(O)c3c(c(O)c1C2=O)C[C@@](O)(C(=O)CO)C[C@@H]3O[C@H]1C[C@H](N2C=CCC2)[C@H](O)[C@H](C)O1 [AN-201, 2-pyrrolino-doxorubicin]
Final tumour volume [1]: 2353.7±506.7 mm^3
Final tumour volume, % inhibition [1]: 26%
Tumour weight, % inhibition [1]: 13.2%
Antitumour effect [1]: ineffective
Tumour doubling time [1]: 5.9 ± 1.4 days
BW change ([2]; ref Plonowski et al, 2000): transient decrease in BW
Reduction in WBC count ([2]; ref Plonowski et al, 2000): ~50%
Effect on GRP-stimulated gastrin release [3]: Neither AN-215 nor AN-201 affected GRP-stimulated gastrin release
GRP(14-27)-evoked serum gastrin level [3]: 251.5 ± 22.1 pg/mL
Mortality, % of animals [4, 8]: 20%
Mortality (number of dead animals/number of total) [4, 9]: 2/10
Final BW [4, 10]: 25.5 ± 0.8 g

Gln-Trp-Ala-Val-Gly-His-Leu-ψ(CH2-NH)-Leu-NH2 [AN-215]
Final tumour volume [1]: 971.5±227.9 mm^3
Final tumour volume, % inhibition [1]: 69.6%
Tumour weight, % inhibition [1]: 64.6%
Antitumour effect [1]: strong tumour growth inhibition
Tumour doubling time [1]: 8.18±1.8 days and 8.2±1.8 days and 8.2±1.8^c days
BW change ([2]; ref Plonowski et al, 2000): transient decrease in BW
Reduction in WBC count ([2]; ref Plonowski et al, 2000): ~50%
Tolerance with carboxylesterase inhibited ([2]; nude mice, ref Nagy et al, 2000, Plonowski et al): significantly higher tolerance
Efficacy with suppressed esterase activity ([2]; nude mice, ref Plonowski et al, 2000): highly efficacious
Effect of treatment on binding characteristics of receptors for BN/GRP [5]: did not affect the binding characteristics
Damage to gastrointestinal cells ([3]; GRP-stimulated gastric secretion, this study and also ref Plonowski et al, 2000): no specific damage to the gastrointestinal cells
Effect on GRP-stimulated gastrin release [3]: Neither AN-215 nor AN-201 affected GRP-stimulated gastrin release
GRP(14-27)-evoked serum gastrin level [3]: 257.9 ± 11.6 pg/mL
Toxicity by BW and mortality ([4]; both experiments, 150 nmol kg^-1 i.v.): not toxic
Mortality, % of animals [4, 8]: 9%
Mortality (number of dead animals/number of total) [4, 9]: 1/11
Final BW, % of control ([4]; experiment 1, day 29): 87%
Final BW [4, 10]: 25.4 ± 0.6 g
Mortality (number of dead animals/number of total) ([4]; experiment 2, 150 nmol kg^-1 i.v. days 1, 10, 17, control 1/10): 0/10
Toxicity-related deaths ([4]; experiment 2, AN-215 150 nmol kg^-1 without pretreatment): no toxicity-related deaths
Mortality, % of animals, after RC-3095 pretreatment ([4]; experiment 2, RC-3095 200 μg i.v. about 15 min before AN-215): 11%
Final BW, % of control ([4]; experiment 2, day 20): 90%
Final BW ([4]; experiment 2, day 20, control 30.2±0.8): 27.3 ± 0.9 g
IC50 ([6]; U-87MG tumour membranes, AN-215 10^-6–10^-12 M, mean±s.e., read-out: IC50, inhibition of specific 125I-[Tyr4]BN binding): 4 ± 0.1 nM
Binding affinity to BN/GRP receptor protein ([6]; U-87MG tumours): high binding affinity
Tumour doubling time ([7]; 150 nmol kg^-1 i.v. days 1, 10, 17, 20 days, no pretreatment, control 4.5±0.2): 6.6 ± 1.0 days
Antitumour effect after BN receptor blockade ([7]; RC-3095 200 μg i.v. 15 min before AN-215 150 nmol kg^-1): could be blocked by pretreatment with an excess of a bombesin antagonist; also recorded: non-significant growth inhibition of U-87MG glioblastomas
Growth inhibition after RC-3095 pretreatment [7, 11]: 22%
Tumour doubling time after RC-3095 pretreatment [7, 11]: 4.7 ± 02 days

From article PMC2375353, “Effective treatment of experimental U-87MG human glioblastoma in nude mice with a targeted cytotoxic bombesin analogue, AN-215” (British Journal of Cancer, 2002)
